What was measured:
[1] = target: T1, uPA1–48:uPAR complexes binding to vitronectin (Homo sapiens, UniProt Q03405); assay: Vitronectin binding assay (ELISA); details: 20 nM biotinylated suPAR, 20 nM uPA1–48
T1 construct: sUPAR, soluble truncated form of the urokinase receptor; made in house; host or cells: suPAR: baculovirus-infected Sf9 cells; uPA1-48: recombinant yeast; vitronectin: purified from human plasma
Method: Vitronectin was purified from human plasma by the method of Yatohgo et al, Cello Struct.and Funct. 13: 281–292 (1988). Purified vitronectin was diluted to 20 μg/ml in PBS containing 1 mM CaCl2 and 0.5 mM MgCl2, dispensed at 50 μl/well into Immulon II wells (Dynatech, Chantilly, Va.), incubated overnight at 4° C. and washed with PBS/BSA. Biotinylated sUPAR was diluted to 20 nM in PBS/BSA, incubated with or without test ligand for 30 minutes at room temperature (22° C.), dispensed at 100 μl/well and incubated for 90 minutes. Wells were then washed and horseradish peroxidase (HRP)-conjugated streptavidin was added at 0.4 μg/ml in PBS/2% BSA for 1 hour followed by washing and addition of 100 μl/well TMB substrate. The color development was stopped with 100 μl of 0.8N H2SO4 and the absorbance at 450 nm measured in a 96 well plate reader (Dynatech, Chantilly, Va.). Antagonistic effects of test ligands were measured as described above except the ligands were incubated with 20 nM biotinylated suPAR in the presence of 20 nM uPA1–48.
In order to analyze the effects of the various peptide ligands on the uPAR:vitronectin interaction, we developed an in vitro ELISA based assay for this interaction, in which biotinylated suPAR and uPA1–48 bind to immobilized, urea purified vitronectin, and the bound sUPAR is detected with HRP conjugated streptavidin. Under the conditions of the assay binding of biotinylated uPAR to vitronectin is strictly dependent on uPA1–48, as shown in FIG. 1.

sUPAR domain 2–3 (D23) = target: T2, sUPAR domain 2–3 (D23) (Homo sapiens, UniProt Q03405); assay: Bacteriophage binding to sUPAR domain 2/3; details: phage-displayed peptide
T2 construct: domains 2 and 3 (amino acids 93–313); made in house; host or cells: baculovirus infected Sf9 insect cells
T2 sequence (Q03405 115-335): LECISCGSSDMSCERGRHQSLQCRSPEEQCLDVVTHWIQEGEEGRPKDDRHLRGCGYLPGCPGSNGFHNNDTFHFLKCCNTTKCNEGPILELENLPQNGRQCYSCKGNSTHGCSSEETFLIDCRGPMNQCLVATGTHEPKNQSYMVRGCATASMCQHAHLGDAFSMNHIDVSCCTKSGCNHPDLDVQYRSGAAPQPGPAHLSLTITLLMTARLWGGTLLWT
Method: FIG. 5. Bacteriophage binding to sUPAR domain 2/3. Phage were added to wells containing sUPAR domain 2/3 immobilized by its epitope tag via protein G and monoclonal antibody to the epitope tag. Wells containing protein G and antibody but no domain 2/3 were included to determine nonspecific phage binding. Urea-eluted phage and the input stocks were titered by plaque formation assay. Results were single point determinations calculated as a percent of the input titer and were repeated in three separate experiments.
It was also shown by the inventors that bacteriophage bound to sUPAR domain 2–3fragment. Protein G, 100μl, 1 mg/ml in 50 mM Na2CO3, pH9.6, was added to MaxiSorp wells, incubated overnight at 4° C. and then washed with PBS/BSA. Fifty μl of monoclonal antibody to the epitope tag EYMPME (SEQ ID NO: 18) was added at 1 mg/ml in PBS/BSA and incubated for 2 hours at room temperature. The wells were washed, recombinant sUPAR domain 2–3 (1.7 μM in PBS/BSA) was added and incubated for 1.5 hours at room temperature. The wells were washed prior to the addition of bacteriophage (approximately 10^8 pfu), and then treated as described in the previous section for binding to suPAR.

Mac-1 and uPAR = target: T3, Mac-1 and uPAR (Homo sapiens, UniProt Q03405); assay: Mac-1/uPAR interaction in U937 cell line; format: cell-based; details: 100 μM
T3 construct: endogenous in cells; host or cells: U937 cell line
T3 sequence (Q03405 23-305 limits assumed): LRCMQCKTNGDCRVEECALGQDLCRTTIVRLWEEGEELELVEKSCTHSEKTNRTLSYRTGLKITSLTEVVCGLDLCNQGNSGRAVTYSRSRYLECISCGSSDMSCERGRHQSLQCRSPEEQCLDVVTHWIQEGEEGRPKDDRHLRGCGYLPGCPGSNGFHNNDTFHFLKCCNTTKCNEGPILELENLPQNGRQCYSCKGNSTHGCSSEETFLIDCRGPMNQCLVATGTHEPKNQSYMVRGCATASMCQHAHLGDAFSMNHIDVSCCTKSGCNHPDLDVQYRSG

nontransfected 293 cells = assay: Adhesion of nontransfected 293 cells to fibronectin or collagen; format: cell-based
From the text: To explore whether uPAR binds to integrins, nontransfected 293 cells were allowed to adhere to fibronectin or collagen in the presence of recombinant soluble uPAR (suPAR).

[2] = target: T4, β1/caveolin/uPAR complexes (Homo sapiens, UniProt Q03405); assay: Immunoprecipitation of uPAR with β1 / caveolin; format: cell-based; details: 100 μM, co-immunoprecipitation
T4 construct: The full length cDNA for the human urokinase receptor; expressed in transfected cells; host or cells: 293 embryonic kidney cells stably expressing GPI-uPAR
T4 sequence (Q03405 23-305, one chain of several): as the sequence (Q03405 23-305 limits assumed) above
Method: When triton X 100 (0.2%) insoluble fraction of GPI-uPAR 293 cells is solubilized in polar detergents, immunoprecipitation of β1 clearly co-precipitates uPAR as described in Filardo et al, J. Cell. Biol. 1995, in press: Cells (5×10^6) were cultured overnight, washed twice with microtubule stabilization buffer (0.1M PIPES, pH 6.9, 2M glycerol, 1 mM EDTA, and 1 mM magnesium acetate), and then extracted on ice for 5 minutes in buffer containing 0.2% Triton X 100 and inhibitors (1 mM sodium orthovandate, 1 mM phenylsulfonyl fluoride, […] leupeptin). The insoluble residues were solubolized at 4° C. for 20 minutes in 1× RIPA buffer (150 mM sodium chloride, 50 mM Tris-HCl, pH 7.5, 1% deoxycholate, 0.1% sodium dodecyl sulfate, 1% Triton X-100) supplemented with protease inhibitors. The triton soluble fraction was diluted 1:1 with 2× RIPA buffer. Both fractions were centrifuged for 10 minutes at 6000 rpm, and then precleared by incubation with nonimmune serum and protein A-agarose for 2 hours at 4° C.
Supernatants were transferred to fresh tubes and incubated with antibodies against β1 or caveolin for 2 hours at 4° C. Immune complexes were recovered with protein A-agarose. The washed immunoprecipitates were subjected to 8% SDS-PAGE, and transferred onto a nitrocellulose membrane. […]

T1 sequence (Q03405 23-305 limits assumed, one chain of several): as the sequence (Q03405 23-305 limits assumed) above

H-AESTYHHLSLGYMYTLN-NH2 [peptide 25]
effect on binding of uPA1–48:uPAR complexes to vitronectin [1]: little or no effect
bacteriophage binding to immobilized D23 versus sUPAR (sUPAR domain 2–3 (D23); listed as bacteriophage 25): equivalent binding to D23 and suPAR
bacteriophage binding to immobilized D23 versus sUPAR (sUPAR domain 2–3 (D23); listed as clone 25): bind equivalently to the D23 fragment and full-length receptor
interaction between Mac-1 and uPAR (Mac-1 and uPAR): abrogated the interaction
reversal of suPAR inhibition of adhesion to fibronectin and collagen (nontransfected 293 cells; 100 μM peptide): reversible
adhesion to fibronectin by nontransfected 293 cells (nontransfected 293 cells; peptide alone): no effect
disruption of β1/caveolin/uPAR complexes [2]: largely disrupted

Reference: US7094752B2 (Chiron Corporation, priority 1997, dated 2006)
